Reference: patent publication US10017534B2, “Method for producing Tebbe complex” (KURARAY CO., LTD., priority 2014, dated 2018)

Assay: Measurement of solubility of Tebbe complex in a solvent (atomic absorption analysis of filtrate)
Settings: for Solubility of Tebbe complex / Titanium atom contained in filtrate: 25° C.
Protocol: The measurement of the solubility of the Tebbe complex in a solvent was performed in the following manner. That is, 4 mL of a solvent of every kind was added to 1 g of a Tebbe complex obtained in the following Preparation Example 1; a solution after stirring at 25° C. for one hour was filtered with a membrane filter of 0.2 μm; the filtrate was subjected to atomic absorption analysis using the aforementioned polarized Zeeman atomic absorption spectrophotometer; and a titanium atom concentration was measured.
The measurement of the solubility of the Tebbe complex in a solvent was performed in the following manner. That is, 4 mL of a solvent of every kind was added to 1 g of the Tebbe complex obtained in Preparation Example 1; a solution after stirring at 25° C. for one hour was filtered with a membrane filter of 0.2 μm; and the filtrate was subjected to atomic absorption analysis using the aforementioned polarized Zeeman atomic absorption spectrophotometer, thereby measuring a titanium atom concentration.
Using a glove box, 1.0 g of the brownish-red crystal b1 of the Tebbe complex obtained in the method of Preparation Example 1 was weighed in a 20-mL eggplant type flask in an argon atmosphere, and a rotator and 4 mL of dehydrated hexane were added, followed by stirring at 25° C. for one hour. Thereafter, the resultant was allowed to stand and then filtered with a membrane filter of 0.2 μm, and 1.0 g of a filtrate containing the Tebbe complex was subjected to atomic absorption analysis, thereby measuring the solubility of the Tebbe complex.

μ-chloro-μ-methylene-bis(η^5-cyclopentadienyl)titanium dimethylaluminum [Tebbe complex]
Solubility of Tebbe complex (1,4-dioxane): 1.43 mmol/g | Titanium atom contained in filtrate (1,4-dioxane): 6.84 % by mass | Solubility of Tebbe complex (2-hexene): 0.27 mmol/g | Titanium atom contained in filtrate (2-hexene): 1.29 % by mass | Solubility of Tebbe complex (2-methylpentane): 0.21 mmol/g | Titanium atom contained in filtrate (2-methylpentane): 1.01 % by mass | solubility of the Tebbe complex in 1 g of the solvent (aliphatic hydrocarbons of Test Examples 1 to 6, 25° C.): ≤ 0.5 mmol/g | solubility of the Tebbe complex in 1 g of the solvent (aromatic hydrocarbons and ether compounds of Comparative Test Examples 1 to 8, 25° C.): more than 0.5 mmol/g | Solubility of Tebbe complex (benzene): 1.18 mmol/g | Titanium atom contained in filtrate (benzene): 5.65 % by mass | Solubility of Tebbe complex (cyclohexane): 0.45 mmol/g | Titanium atom contained in filtrate (cyclohexane): 2.15 % by mass | Solubility of Tebbe complex (cyclopentyl methyl ether): 1.29 mmol/g | Titanium atom contained in filtrate (cyclopentyl methyl ether): 6.17 % by mass | Solubility of Tebbe complex (diisopropyl ether): 0.60 mmol/g | Titanium atom contained in filtrate (diisopropyl ether): 2.87 % by mass | Solubility of Tebbe complex (dodecane): 0.12 mmol/g | Titanium atom contained in filtrate (dodecane): 0.57 % by mass | Solubility of Tebbe complex (heptane): 0.21 mmol/g | Titanium atom contained in filtrate (heptane): 1.01 % by mass | Solubility of Tebbe complex (hexane): 0.22 mmol/g | Titanium atom contained in filtrate (hexane): 1.05 % by mass | Solubility of Tebbe complex (methylene chloride): 1.49 mmol/g | Titanium atom contained in filtrate (methylene chloride): 7.13 % by mass | Solubility of Tebbe complex (p-xylene): 0.94 mmol/g | Titanium atom contained in filtrate (p-xylene): 4.50 % by mass | Solubility of Tebbe complex (tetrahydrofuran): 1.71 mmol/g | Titanium atom contained in filtrate (tetrahydrofuran): 8.19 % by mass | Solubility of Tebbe complex (toluene): 0.93 mmol/g | Titanium atom contained in filtrate (toluene): 4.45 % by mass
